For 22 compounds, T/C results are on record in PubChem BioAssay AID248 (DTP/NCI, 2004).

The assay has as its system L1210 leukemia ip in BDF1 mice, survival T/C. Nature of the assay: NCI In Vivo Anticancer Drug Screen. Data for tumor model L1210 Leukemia (intraperitoneal) in B6D2F1 (BDF1) mice. Particulars: endpoint: mean survival time, higher = longer survival. The procedure, abridged: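 Transplanted-tumor mice were given test agent; controls received vehicle only. Survival readings from the two groups were divided (treated over control).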

Setting [1] is: dose: 100.0 mg/kg/injection, schedule: Q01DX001 (ip), vehicle: carboxymethylcellulose (CMC).
The mark [2] stands for this setting: dose: 200.0 mg/kg/injection, schedule: Q01DX001 (ip), vehicle: carboxymethylcellulose (CMC).
The mark [3] stands for this setting: dose: 400.0 mg/kg/injection, schedule: Q01DX001 (ip), vehicle: carboxymethylcellulose (CMC).
Setting [4] is: dose: 100.0 mg/kg/injection, schedule: Q04DX003 (ip), vehicle: saline.
Where [5] appears, read: dose: 200.0 mg/kg/injection, schedule: Q04DX003 (ip), vehicle: saline.
Setting [6] is: dose: 50.0 mg/kg/injection, schedule: Q01DX009 (ip), vehicle: saline with Tween-80.
[7] abbreviates: dose: 100.0 mg/kg/injection, schedule: Q01DX009 (ip), vehicle: saline with Tween-80.
[8] abbreviates: dose: 400.0 mg/kg/injection, schedule: Q04DX003 (ip), vehicle: saline.
Where [9] appears, read: dose: 200.0 mg/kg/injection, schedule: Q01DX009 (ip), vehicle: saline with Tween-80.
[10] abbreviates: dose: 100.0 mg/kg/injection, schedule: Q04DX002 (ip), vehicle: saline.
The mark [11] stands for this setting: dose: 200.0 mg/kg/injection, schedule: Q04DX002 (ip), vehicle: saline.
[12] abbreviates: dose: 400.0 mg/kg/injection, schedule: Q04DX002 (ip), vehicle: saline.
[13] abbreviates: dose: 75.0 mg/kg/injection, schedule: Q01DX001 (ip), vehicle: saline.
Where [14] appears, read: dose: 150.0 mg/kg/injection, schedule: Q01DX001 (ip), vehicle: saline.
[15] abbreviates: dose: 100.0 mg/kg/injection, schedule: Q04DX003 (ip), vehicle: saline with Tween-80.
[16] abbreviates: dose: 200.0 mg/kg/injection, schedule: Q04DX003 (ip), vehicle: saline with Tween-80.
Setting [17] is: dose: 400.0 mg/kg/injection, schedule: Q04DX003 (ip), vehicle: saline with Tween-80.
Setting [18] is: dose: 100.0 mg/kg/injection, schedule: Q04DX003 (ip), vehicle: Klucel (hydroxypropylcellulose) (HPC).
Where [19] appears, read: dose: 200.0 mg/kg/injection, schedule: Q04DX003 (ip), vehicle: Klucel (hydroxypropylcellulose) (HPC).
Setting [20] is: dose: 400.0 mg/kg/injection, schedule: Q04DX003 (ip), vehicle: Klucel (hydroxypropylcellulose) (HPC).

Inconclusive results and toxic doses are left out.

Consider `Cc1cc(Cl)cc(CN(C)Cc2c(C)[nH]c(=O)[nH]c2=O)c1O`, for which the T/C under setting [1] is 97 % of control, the T/C under setting [2] was 94 % of control and the T/C under setting [3] was 97 % of control.
Regarding `O=C(O)C(Oc1ccccc1O)C(=O)O`, the T/C is 95 % of control under setting [4] and 93 % of control under setting [5].
As to `O=C(CNC(=O)Nc1ccc(C2=NCCN2)cc1)Nc1ccc(C2=NCCN2)cc1`, the T/C was 117 % of control (dose: 4.5 mg/kg/injection, schedule: Q01DX Z (ip), vehicle: carboxymethylcellulose (CMC)); 159 % of control (dose: 9.0 mg/kg/injection, schedule: Q01DX Z (ip), vehicle: carboxymethylcellulose (CMC)); 247 % of control (dose: 18.0 mg/kg/injection, schedule: Q01DX Z (ip), vehicle: carboxymethylcellulose (CMC)); 192 % of control (dose: 36.0 mg/kg/injection, schedule: Q01DX Z (ip), vehicle: carboxymethylcellulose (CMC)); 98 % of control (dose: 50.0 mg/kg/injection, schedule: Q01DX Z (oral), vehicle: water); 115 % of control (dose: 100.0 mg/kg/injection, schedule: Q01DX Z (oral), vehicle: water). Besides, the T/C is 119 % of control (dose: 200.0 mg/kg/injection, schedule: Q01DX Z (oral), vehicle: water) and 150 % of control (dose: 400.0 mg/kg/injection, schedule: Q01DX Z (oral), vehicle: water).
With `CC(C)(O)C(=O)NC/C=C/c1ccccc1`, the T/C is 93 % of control (dose: 25.0 mg/kg/injection, schedule: Q01DX009 (ip), vehicle: saline with Tween-80); 93 % of control under setting [6]; 93 % of control under setting [7].
Take `CC(=NCc1ccccc1)C(C)(O)c1ccccc1` (configuration not stated): the T/C is 105 % of control (dose: 100.0 mg/kg/injection, schedule: Q01DX009 (ip), vehicle: other); 97 % of control (dose: 100.0 mg/kg/injection, schedule: Q04DX003 (ip), vehicle: other); 97 % of control under setting [4]; 107 % of control (dose: 200.0 mg/kg/injection, schedule: Q01DX009 (ip), vehicle: other); 90 % of control (dose: 200.0 mg/kg/injection, schedule: Q04DX003 (ip), vehicle: other); 103 % of control under setting [5]. The T/C reads like this: (dose: 400.0 mg/kg/injection, schedule: Q01DX009 (ip), vehicle: other) 100 % of control; (dose: 400.0 mg/kg/injection, schedule: Q04DX003 (ip), vehicle: other) 95 % of control; under setting [8], 95 % of control.
Turning to `COc1cccc(C(C)(C)CO)c1`, the T/C reads like this: under setting [6], 93 % of control; under setting [7], 89 % of control; under setting [9], 89 % of control.
As to `NC(=O)C1CCC(=O)N1` (configuration not stated), the T/C (dose: 100.0 mg/kg/injection, schedule: Q01DX009 (ip), vehicle: saline) was 93 % of control; the T/C under setting [10] is 104 % of control; the T/C (dose: 200.0 mg/kg/injection, schedule: Q01DX009 (ip), vehicle: saline) was 101 % of control; the T/C under setting [11] was 98 % of control; the T/C (dose: 400.0 mg/kg/injection, schedule: Q01DX009 (ip), vehicle: saline) was 93 % of control; the T/C under setting [12] was 91 % of control.
In the case of `C[n+]1ccc(C(=O)c2ccccc2)cc1`, the T/C by setting is: under setting [13], 94 % of control; under setting [14], 101 % of control.
For the compound `COC1CC(NC(=O)N(C)N=O)C(O)C(C)O1` (configuration not stated), the T/C is 106 % of control under setting [8] and 101 % of control (dose: 500.0 mg/kg/injection, schedule: Q04DX003 (ip), vehicle: saline).
`CN(C)CC1(C)CCc2c(ccc3ccccc23)C1O` (configuration not stated): the T/C (dose: 100.0 mg/kg/injection, schedule: Q01DX001 (ip), vehicle: Klucel (hydroxypropylcellulose) (HPC)) was 94 % of control.
With `Cc1ccc(S(=O)(=O)NCC(=O)NCC(=O)Oc2c(Cl)c(Cl)c(Cl)c(Cl)c2Cl)cc1`, the T/C by setting is: (dose: 100.0 mg/kg/injection, schedule: Q01DX001 (ip), vehicle: water) 95 % of control; (dose: 200.0 mg/kg/injection, schedule: Q01DX001 (ip), vehicle: water) 96 % of control; (dose: 400.0 mg/kg/injection, schedule: Q01DX001 (ip), vehicle: water) 95 % of control.
Turning to `Cc1sc2ccc(Cl)cc2[n+]1CCC(=O)O`, the T/C runs as follows: under setting [7], 101 % of control; under setting [15], 111 % of control; under setting [9], 96 % of control; under setting [16], 108 % of control; (dose: 400.0 mg/kg/injection, schedule: Q01DX009 (ip), vehicle: saline with Tween-80) 97 % of control; under setting [17], 95 % of control.
With `CC1=C(C(=O)O)CC(S(=O)(=O)O)C1(C)C` (configuration not stated), the T/C is, setting by setting: (dose: 75.0 mg/kg/injection, schedule: Q01DX001 (ip), vehicle: acetone) 96 % of control; (dose: 150.0 mg/kg/injection, schedule: Q01DX001 (ip), vehicle: acetone) 96 % of control; (dose: 300.0 mg/kg/injection, schedule: Q01DX001 (ip), vehicle: acetone) 92 % of control.
`CN(C)/C=N/NC(=O)C(O)c1ccccc1` (configuration not stated): the T/C was 116 % of control under setting [15], 103 % of control under setting [16] and 111 % of control under setting [17].
With `C=C1CC(O)C2C(C)C(=O)OC2C2C1CC1OC12C` (configuration not stated), the T/C under setting [10] is 92 % of control, the T/C under setting [11] was 95 % of control and the T/C under setting [12] was 92 % of control.
On to `O=C1O/C(=C\c2ccccc2)c2c(Br)c(Br)c(Br)c(Br)c21`, for which the T/C is 94 % of control under setting [1], 91 % of control under setting [2] and 96 % of control under setting [3].
In the case of `CN(C)c1ccc(-c2ccc(N(C)C)cc2)cc1`, the T/C (dose: 50.0 mg/kg/injection, schedule: Q01DX001 (ip), vehicle: carboxymethylcellulose (CMC)) is 100 % of control; the T/C under setting [1] was 100 % of control; the T/C under setting [2] is 96 % of control; the T/C under setting [3] is 106 % of control.
Consider `CCOC(=O)c1cnc(NCC(C)(C)C)[nH]c1=O`, for which the T/C by setting is: (dose: 100.0 mg/kg/injection, schedule: Q01DX001 (ip), vehicle: saline) 95 % of control; (dose: 200.0 mg/kg/injection, schedule: Q01DX001 (ip), vehicle: saline) 91 % of control; (dose: 400.0 mg/kg/injection, schedule: Q01DX001 (ip), vehicle: saline) 91 % of control.
For `Nc1sc(=S)nc2[nH]ncc12`, the T/C by setting is: (dose: 50.0 mg/kg/injection, schedule: Q01DX009 (ip), vehicle: Klucel (hydroxypropylcellulose) (HPC)) 90 % of control; (dose: 100.0 mg/kg/injection, schedule: Q01DX009 (ip), vehicle: Klucel (hydroxypropylcellulose) (HPC)) 96 % of control; under setting [18], 98 % of control; (dose: 200.0 mg/kg/injection, schedule: Q01DX009 (ip), vehicle: Klucel (hydroxypropylcellulose) (HPC)) 93 % of control; under setting [19], 95 % of control; under setting [20], 95 % of control.
Turning to `Nc1ccc(C(=O)O)c(C(=O)O)c1`, the T/C is 101 % of control under setting [7]; 100 % of control under setting [18]; 91 % of control under setting [9]; 98 % of control under setting [19]; 102 % of control under setting [20].
For the compound `O=S(=O)(N=S(CCCl)CCCl)c1ccccc1`, the T/C reads like this: (dose: 100.0 mg/kg/injection, schedule: Q04DX002 (ip), vehicle: Klucel (hydroxypropylcellulose) (HPC)) 111 % of control; (dose: 200.0 mg/kg/injection, schedule: Q04DX002 (ip), vehicle: Klucel (hydroxypropylcellulose) (HPC)) 111 % of control.
As to `O=CN/N=C/c1ccc(Cl)cc1Cl`, the T/C by setting is: under setting [13], 95 % of control; under setting [14], 104 % of control.
